pIC50: −log10 of the molar value. Activity calls are given as the source filed them. The rule behind the calls is not given here.
Assays:
Jurkat = experiment: Antiproliferative activity against human Jurkat cells incubated for 48 hrs by MTT assay; type: functional, cell-based
Vero = experiment: Cytotoxicity against African green monkey Vero cells incubated for 48 hrs by MTT assay; type: cell-based; conditions: Chlorocebus sabaeus
HL-60 [1] = experiment: Antiproliferative activity against human HL60 cells incubated for 48 hrs by MTT assay; type: functional, cell-based; conditions: HL-60, 48 h
LNCaP [2] = experiment: Antiproliferative activity against human LNCAP cells incubated for 48 hrs by MTT assay; type: functional, cell-based
LNCaP [3] = experiment: Selectivity index, ratio of IC50 for African green monkey Vero cells to IC50 for human LNCAP cells; type: functional
PBMC = experiment: Antiproliferative activity against human PBMC incubated for 48 hrs by MTT assay; type: cell-based
LNCaP [4] = experiment: Selectivity index, ratio of IC50 for human PBMC to IC50 for human LNCAP cells
HL-60 [5] = experiment: Induction of DNA fragmentation in human HL60 cells at 50 uM after 24 hrs using propidium iodide staining by flow cytometric analysis; type: functional, cell-based
MDA-MB-231 [6] = experiment: Induction of DNA fragmentation in human MDA-MB-231 cells at 50 uM after 24 hrs using propidium iodide staining by flow cytometric analysis; type: functional, cell-based
MDA-MB-231 [7] = experiment: Antiproliferative activity against human MDA-MB-231 cells incubated for 48 hrs by MTT assay; type: functional, cell-based; conditions: MDA-MB-231, 48 h

Compound	pIC50 (Jurkat)	pIC50 (HL-60 [1])	pIC50 (LNCaP [2])	pIC50 (MDA-MB-231 [7])	pIC50 (Vero)	Ratio IC50 (LNCaP [3])	pIC50 (PBMC)	Ratio IC50 (LNCaP [4])	Activity (HL-60 [5])	Activity (MDA-MB-231 [6])
CC(C)(C)OC(=O)N1[C@@H](CSc2ccc([N+](=O)[O-])cc2)COC1(C)C	< 4.30	< 4.30	< 4.10	< 4.10						
COC(=O)c1ccc(CC[C@H]2COC(C)(C)N2C(=O)OC(C)(C)C)cc1	< 4.30	4.70	4.43	< 4.10						

Now from value to compound, other results behind:

pIC50 (Jurkat)	pIC50 (HL-60 [1])	pIC50 (LNCaP [2])	pIC50 (MDA-MB-231 [7])	Compound	pIC50 (Vero)	Ratio IC50 (LNCaP [3])	pIC50 (PBMC)	Ratio IC50 (LNCaP [4])	Activity (HL-60 [5])	Activity (MDA-MB-231 [6])
4.34	4.64	4.96	4.49	CC(C)(C)OC(=O)N1[C@@H](/C=C/c2ccc([N+](=O)[O-])cc2)COC1(C)C	< 4.00	>9	< 4.00	>9	Active	inactive
< 4.30	< 4.30	< 4.10	< 4.10	CC(C)(C)OC(=O)N1[C@@H](C(=O)Nc2ccc([N+](=O)[O-])cc2)COC1(C)C						
4.38	4.74	4.57	4.49	CC(C)(C)OC(=O)N1[C@@H](/C=C\c2ccc([N+](=O)[O-])cc2)COC1(C)C	< 4.00		< 4.00		Active	inactive

Reference: ChEMBL document CHEMBL3627602, “Synthesis of a novel series of 2,3,4-trisubstituted oxazolidines designed by isosteric replacement or rigidification of the structure and cytotoxic evaluation” (Medchemcomm, 2014)
